≈ marks a conversion by molar mass, not a printed value. Entries after “also recorded” stand apart in the source; their conditions may differ. Read-outs that look alike come from different tables or passages of the source.
What was measured:
[1] = MTS cytotoxicity assay on BHK-21 cells; details: hamster
BHK-21 cells = assay: MTS cytotoxicity assay on BHK-21 cells; details: BHK-21 cells, MTS assay, 2 days; more than 95% of treated cells viable
CHIKV [2] = assay: Primary screening: CPE inhibition assay (confirmed by MTS) in CHIKV-infected Vero cells; details: for Antiviral activity in CPE inhibition and MTS assays: MOI = 1, 48 h; for CPE inhibitory activity: highest concentrations (tested as high as 200 μg/ml), MOI = 1, 48 hpi
CHIKV [3] = assay: Post-entry virus yield assay, CHIKV RNA copy number by qRT-PCR; details: for Inhibitory effect against CHIKV replication (RNA copy number): virus yield assay, qRT-PCR, Vero cells
[4] = MTS cytotoxicity assay on Vero cells; details: African green monkey
Vero cells = assay: MTS cytotoxicity assay on Vero cells; details: Vero cells, MTS assay, 2 days; more than 95% of treated cells viable
CHIKV replicon = test system: CHIKV replicon; design: method as in PMID 22205980; details: previous study, cited from earlier work

Row | SMILES | CC50 at 2 days [1] [µg/mL] | MNTD (maximum non-toxic dose) (BHK-21 cells) [µg/mL] | Antiviral activity in CPE inhibition and MTS assays (CHIKV [2]) | CPE inhibitory activity (CHIKV [2]) [%] | Inhibitory effect against CHIKV replication (RNA copy number) (CHIKV [3]) | CC50 at 48 h [4] [µg/mL] | MNTD (maximum non-toxic dose) (Vero cells) [µg/mL] | IC50 (CHIKV [3]; Chikungunya virus, Vero) [µg/mL] | IC50 (CHIKV replicon; converted from μM) | IC50 (CHIKV replicon; read-out: IC50) [µM]
1 | O=c1c(O)c(-c2ccc(O)cc2)oc2cc(O)cc(O)c12 [Kaempferol] | 537 (≈ 1880 µM) | >200 | neither kaempferol nor quercetin showed significant antiviral activity | 25 | neither kaempferol nor quercetin showed any significant inhibitory effect; also recorded: no significant inhibitory effect | > 1000 | >400 |  |  | 
2 | O=c1c(O)c(-c2ccc(O)c(O)c2)oc2cc(O)cc(O)c12 [Quercetin] | > 800 | >500 | neither kaempferol nor quercetin showed significant antiviral activity | 25 | neither kaempferol nor quercetin showed any significant inhibitory effect; also recorded: no significant inhibitory effect | > 1000 | >400 |  |  | 
3 | COc1cc(C2Oc3cc([C@H]4Oc5cc(O)cc(O)c5C(=O)[C@@H]4O)ccc3OC2CO)ccc1O (stereo partly shown) [Silybin] |  |  |  |  |  | > 200 | >50 | 69.7 (≈ 144 µM) | approximately 30 μg/ml | 59.8

From paper PMC4468427, “Antiviral activity of silymarin against chikungunya virus” (Scientific Reports, 2015)
